We go through nine compounds from PubChem BioAssay AID1259407 (Chemical Carcinogenesis Research Information System (CCRIS), 2018).

The series has as its system CCRIS mutagenicity, Ames/micronucleus/aberration tests. Nature of the series: CCRIS mutagenicity studies.
The mark [1] stands for this setting: Test System: AMES SALMONELLA TYPHIMURIUM, Strain/Indicator: TA100, Metabolic Activation: NONE, Method: PREINCUBATION
[2] abbreviates: Test System: AMES SALMONELLA TYPHIMURIUM, Strain/Indicator: TA100, Metabolic Activation: RAT, LIVER, S-9, PCB, Method: PREINCUBATION
Where [3] appears, read: Test System: AMES SALMONELLA TYPHIMURIUM, Strain/Indicator: TA100, Metabolic Activation: NONE, Method: STANDARD PLATE.
Where [4] appears, read: Test System: AMES SALMONELLA TYPHIMURIUM, Strain/Indicator: TA1535, Metabolic Activation: NONE, Method: STANDARD PLATE.

The structures appear in SMILES notation. Active and inactive are the calls of the source. The rule behind the calls is not given here.

As for `COC(=O)c1c2c(c3ccccc3c1O)OC(C)(C)C=C2`, the mutagenic call was “active; positive” under setting [1] and “active; positive” under setting [2].
As for `NC(=O)OC[C@@H]1[C@H](NC(=O)/C(=N\OCC(=O)O)c2csc(N)n2)C(=O)N1S(=O)(=O)O`, the mutagenic call is, setting by setting: (Test System: AMES SALMONELLA TYPHIMURIUM, Strain/Indicator: TA98, Metabolic Activation: NONE) “inactive; negative”; (Test System: AMES SALMONELLA TYPHIMURIUM, Strain/Indicator: TA98, Metabolic Activation: S-9) “inactive; negative”; (Test System: AMES SALMONELLA TYPHIMURIUM, Strain/Indicator: TA100, Metabolic Activation: NONE) “inactive; negative”; (Test System: AMES SALMONELLA TYPHIMURIUM, Strain/Indicator: TA100, Metabolic Activation: S-9) “inactive; negative”; (Test System: AMES SALMONELLA TYPHIMURIUM, Strain/Indicator: TA1537, Metabolic Activation: NONE) “inactive; negative”; (Test System: AMES SALMONELLA TYPHIMURIUM, Strain/Indicator: TA1537, Metabolic Activation: S-9) “inactive; negative”. The mutagenic call (Test System: E. COLI, Strain/Indicator: WP2 (HCR), Metabolic Activation: NONE) is “inactive; negative” and the mutagenic call (Test System: E. COLI, Strain/Indicator: WP2 (HCR), Metabolic Activation: S-9) was “inactive; negative”.
Regarding `CO[C@H](C)[C@](O)(C(=O)OCC1=CCN2CC[C@H](O)[C@@H]12)C(C)C`, the mutagenic call (Test System: AMES SALMONELLA TYPHIMURIUM, Strain/Indicator: TA100, Metabolic Activation: HAMSTER, LIVER, S-9, PCB, Method: PREINCUBATION) is “inactive; negative; dose related trend; by authors criteria results are positive” and the mutagenic call under setting [2] was “inactive; negative; dose related trend; by authors criteria results are positive”.
In the case of `CCOS(=O)(=O)c1ccc(C)cc1`, the mutagenic call (End Point: IN VITRO MICRONUCLEUS, Test System: MOUSE LYMPHOMA L5178Y CELLS, Metabolic Activation: NONE) was “active; positive”; the mutagenic call (End Point: IN VITRO MICRONUCLEUS, Test System: MOUSE LYMPHOMA L5178Y CELLS, Metabolic Activation: RAT, LIVER, S-9) was “active; positive”; the mutagenic call (End Point: In vitro micronucleus, Test System: Chinese Hamster Ovary (CHO-WBL) cells, Metabolic Activation: None) was “active; positive (p<0.01)”; the mutagenic call under setting [3] was “inactive; negative; authors describe results as weakly positive”; the mutagenic call (Test System: AMES SALMONELLA TYPHIMURIUM, Strain/Indicator: TA100, Metabolic Activation: RAT, LIVER, S-9, Method: STANDARD PLATE) was “inactive; negative; authors describe results as weakly positive”; the mutagenic call under setting [4] was “active; positive”. Under “Test System: UDS HUMAN FIBROBLASTS, Strain/Indicator: THY INCORP (NON-S-PHASE), Metabolic Activation: NONE, Method: LIQUID SCINTILLATION COUNTING”, the mutagenic call is “active; positive”.
As for `O/N=C/C=N/O`, the mutagenic call is “inactive; negative” (Test System: AMES SALMONELLA TYPHIMURIUM, Strain/Indicator: TA102, Metabolic Activation: RAT, LIVER, S-9, PHENOBARBITAL AND 5,6-BENZOFLAVONE, Method: STANDARD PLATE); “inactive; negative” (Test System: AMES SALMONELLA TYPHIMURIUM, Strain/Indicator: TA2638, Metabolic Activation: RAT, LIVER, S-9, PHENOBARBITAL AND 5,6-BENZOFLAVONE, Method: STANDARD PLATE); “inactive; negative” (Test System: E. COLI, Strain/Indicator: WP2 (PKM101), Metabolic Activation: RAT, LIVER, S-9, PHENOBARBITAL AND 5,6-BENZOFLAVONE, Method: STANDARD PLATE); “active; positive” (Test System: E. COLI, Strain/Indicator: WP2 UVRA (PKM101), Metabolic Activation: RAT, LIVER, S-9, PHENOBARBITAL AND 5,6-BENZOFLAVONE, Method: STANDARD PLATE).
In the case of `O=CC(O)C(O)C(O)CO` (centres undefined), the mutagenic call was “inactive; negative” (Test System: AMES SALMONELLA TYPHIMURIUM, Strain/Indicator: TA98, Metabolic Activation: NONE, Method: STANDARD PLATE); “inactive; negative” (Test System: AMES SALMONELLA TYPHIMURIUM, Strain/Indicator: TA98, Metabolic Activation: RAT, LIVER, S-9, AROCLOR 1254, Method: STANDARD PLATE); “inactive; negative” under setting [3]; “inactive; negative” (Test System: AMES SALMONELLA TYPHIMURIUM, Strain/Indicator: TA100, Metabolic Activation: RAT, LIVER, S-9, AROCLOR 1254, Method: STANDARD PLATE); “inactive; negative” under setting [4]; “inactive; negative” (Test System: AMES SALMONELLA TYPHIMURIUM, Strain/Indicator: TA1535, Metabolic Activation: RAT, LIVER, S-9, AROCLOR 1254, Method: STANDARD PLATE). Further, the mutagenic call (Test System: AMES SALMONELLA TYPHIMURIUM, Strain/Indicator: TA1537, Metabolic Activation: NONE, Method: STANDARD PLATE) was “inactive; negative”; the mutagenic call (Test System: AMES SALMONELLA TYPHIMURIUM, Strain/Indicator: TA1537, Metabolic Activation: RAT, LIVER, S-9, AROCLOR 1254, Method: STANDARD PLATE) was “inactive; negative”; the mutagenic call (Test System: AMES SALMONELLA TYPHIMURIUM, Strain/Indicator: TA1538, Metabolic Activation: NONE, Method: STANDARD PLATE) was “inactive; negative”; the mutagenic call (Test System: AMES SALMONELLA TYPHIMURIUM, Strain/Indicator: TA1538, Metabolic Activation: RAT, LIVER, S-9, AROCLOR 1254, Method: STANDARD PLATE) is “inactive; negative”; the mutagenic call (Test System: E. COLI, Strain/Indicator: WP2, Metabolic Activation: NONE, Method: STANDARD PLATE) was “inactive; negative”; the mutagenic call (Test System: E. COLI, Strain/Indicator: WP2, Metabolic Activation: RAT, LIVER, S-9, AROCLOR 1254, Method: STANDARD PLATE) is “inactive; negative”.
With `[CH3][Sn]([Cl])([Cl])[Cl]`, the mutagenic call (Test System: AMES SALMONELLA TYPHIMURIUM, Strain/Indicator: TA98, Metabolic Activation: NONE, Method: SUSPENSION/PLATE) was “inactive; negative” and the mutagenic call (Test System: AMES SALMONELLA TYPHIMURIUM, Strain/Indicator: TA100, Metabolic Activation: NONE, Method: SUSPENSION/PLATE) is “inactive; negative”.
For the compound `CCCCN(CCO)N=O`, the mutagenic call (Test System: AMES SALMONELLA TYPHIMURIUM, Strain/Indicator: TA1535, Metabolic Activation: RAT, LIVER, S-9, KC500 OR PHENOBARBITAL, Method: LIQUID SUSPENSION) is “active; positive”.
With `O=C(O)C[C@H](O)C[C@H](O)/C=C/c1c(C2CC2)nc2ccccc2c1-c1ccc(F)cc1`, the mutagenic call was “inactive; negative” (Test System: AMES SALMONELLA TYPHIMURIUM, Strain/Indicator: TA98, Metabolic Activation: NONE, Method: PREINCUBATION); “inactive; negative” (Test System: AMES SALMONELLA TYPHIMURIUM, Strain/Indicator: TA98, Metabolic Activation: S-9, Method: PREINCUBATION); “inactive; negative” under setting [1]; “inactive; negative” (Test System: AMES SALMONELLA TYPHIMURIUM, Strain/Indicator: TA100, Metabolic Activation: S-9, Method: PREINCUBATION); “inactive; negative” (Test System: AMES SALMONELLA TYPHIMURIUM, Strain/Indicator: TA1535, Metabolic Activation: NONE, Method: PREINCUBATION); “inactive; negative” (Test System: AMES SALMONELLA TYPHIMURIUM, Strain/Indicator: TA1535, Metabolic Activation: S-9, Method: PREINCUBATION). Also, the mutagenic call was “inactive; negative” (Test System: AMES SALMONELLA TYPHIMURIUM, Strain/Indicator: TA1537, Metabolic Activation: NONE, Method: PREINCUBATION); “inactive; negative” (Test System: AMES SALMONELLA TYPHIMURIUM, Strain/Indicator: TA1537, Metabolic Activation: S-9, Method: PREINCUBATION); “inactive; negative” (Test System: ESCHERICHIA COLI, Strain/Indicator: WP2 UVR A, Metabolic Activation: NONE, Method: PREINCUBATION); “inactive; negative” (Test System: ESCHERICHIA COLI, Strain/Indicator: WP2 UVR A, Metabolic Activation: S-9, Method: PREINCUBATION); “inactive; negative” (Test System: UDS RAT HEPATOCYTES IN VIVO, Strain/Indicator: CRJ:CD(SD)/THYMIDINE INCORPORATION, Metabolic Activation: NONE, Method: AUTORADIOGRAPHY).
